In one assay the target is R232-STING (Homo sapiens, UniProt Q86WV6, H232R). Description: biochemical.
The target of assay [1] is T1, STING (Homo sapiens, UniProt Q86WV6, G230A/H232R/R293Q/R71H).
T1 construct: host or cells: THP-1 and THP-1 Lucia ISG cells
Description: Phosphorylation of IRF3: THP-1 cell ELISA. Type of assay: cell-based. The following applies: THP-1 cells, 3 hours incubation, phospho-IRF3 ELISA; read-out: THP-1 CELL P-IRF3 EC50. As for the experimental part: Phosphorylation of IRF3: THP-1 Cell ELISA
STING activation results in recruitment of TBK1 and phosphorylation of IRF3 transcription factor before induction of type I interferons. THP-1 cells (InvivoGen) were grown in RPMI media plus 2 mM L-glutamine, 10% fetal bovine serum, and 0.5% Pen-Strep. 10^4 cells were seeded in 96-well plates and incubated overnight 37° C., 5% CO2. Compounds serial diluted compounds in media (final 0.5% DMSO) were added to the cells and incubated for an additional 3 hours. After incubation, the plates were centrifuged at 2000 rpm for 5 min. The cells were then lysed in 100 μl RIPA buffer and vortexed for 30 minutes at room temperature. 25 μl of lysate was then transferred to clear polystyrene High Bind plates that had been previously coated with mouse anti-human IRF-3 capture antibody (BD Pharmigen), and allowed to incubate at 4° C. for 16 hours. The plates were then washed and incubated with rabbit anti-phospho-IRF3 detection antibody (Cell Signaling Technologies) for 1.5 hours at room temperature. Finally, an HRP-linked secondary antibody (Cell Signaling Technologies) was added for 30 min before the Glo Substrate Reagent (R&D Systems) was used generate the luminescent signal. The signal was measured using a Perkin-Elmer Envision microplate reader. Data were normalized to “% effect” with a positive control STING agonist that was known to maximize the phosphorylated IRF3 signal and the negative control was DMSO.
(In an ELISA, binding on a coated surface is turned into a signal by an enzyme label.)

For assay [2], the target named is T1, STING. Description: Interferon-β induction: THP-1 Lucia ISG reporter cell line. Type of assay: cell-based. Conditions: THP-1 Lucia ISG cells, 24 hours incubation, luciferase reporter; read-out: THP-1 Lucia ISG Cells IFN-β EC50. The procedure:
Interferon-β Induction: THP-1 ISG Reporter Cell Line
THP-1 Lucia™ ISG cells (InvivoGen) express the secreted luciferase “Lucia” reporter gene under the control of an IRF-inducible composite promotor comprised of five interferon response elements. THP-1 Lucia™ ISG cells were grown in RPMI media plus 2 mM L-glutamine, 10% fetal bovine serum, and 0.5% Pen-Strep. Hygromycin B and Zeocin were present to maintain stable transfection. 10^4 cells were seeded in 96-well plates and incubated overnight 37° C., 5% CO2. 50 μL of serial diluted compounds in media (final 0.5% DMSO) was and incubated for an additional 24 hours. After incubation, the plates were centrifuged at 2000 rpm for 10 min. 50 μl of cell culture supernatant of each well was transferred to a white, opaque 96-well plate. One pouch of QUANTI-Luc™ (InvivoGen) powder was prepared in 25 mL of endotoxin-free water and 100 μL of prepared warm QUANTI-Luc solution were added to each well containing the supernatant. The luminescence signal was measured using a Perkin-Elmer Envision microplate reader. Data were normalized to “% effect” with a positive control STING agonist that was known to maximize the luciferase signal and the negative control DMSO.
On the technique in general: A reporter such as luciferase makes a cellular process visible.

Structures are written as SMILES. Structures can show the parent of a compound that is named as a salt. A value given as a limit tells only on which side of the number the result lay.

Experimental findings from patent publication US12297190B2, “Modulators of STING (stimulator of interferon genes)” (PFIZER INC., priority 2019, dated 2025) are described below.

One may read the Ki as a dissociation constant, usually derived from enzyme kinetics or from competition with a known ligand. Higher therefore signals a looser hold on the target. A word on the EC50: it is the concentration that produces a half-maximal response.

R232-STING, sequence (Q86WV6 155-341 H232R): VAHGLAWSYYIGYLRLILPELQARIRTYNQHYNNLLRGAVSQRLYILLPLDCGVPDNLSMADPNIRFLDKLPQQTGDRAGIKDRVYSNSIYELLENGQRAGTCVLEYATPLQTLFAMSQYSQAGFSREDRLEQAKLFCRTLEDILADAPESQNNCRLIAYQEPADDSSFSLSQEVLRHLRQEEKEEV
T1 sequence (Q86WV6 whole entry R71H/G230A/H232R/R293Q): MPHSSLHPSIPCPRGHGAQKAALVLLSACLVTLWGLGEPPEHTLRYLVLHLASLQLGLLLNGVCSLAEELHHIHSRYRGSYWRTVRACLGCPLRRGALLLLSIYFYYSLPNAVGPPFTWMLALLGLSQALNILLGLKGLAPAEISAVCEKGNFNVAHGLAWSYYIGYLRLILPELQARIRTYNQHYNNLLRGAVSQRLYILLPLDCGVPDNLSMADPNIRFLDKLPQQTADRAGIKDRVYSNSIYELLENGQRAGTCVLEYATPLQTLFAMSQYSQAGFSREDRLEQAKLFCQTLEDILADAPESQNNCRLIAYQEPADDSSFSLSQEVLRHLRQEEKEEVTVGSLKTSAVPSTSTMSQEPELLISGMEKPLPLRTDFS

`CCn1nc(C)cc1-c1nc(-c2nc(C(N)=O)cc3c2cnn3C)c(C(C)N)s1` (racemic) [Compound W-7, 1-(4-(6-carbamoyl-1-methyl-1H-pyrazolo[4,3-c]pyridin-4-yl)-2-(1-ethyl-3-methyl-1H-pyrazol-5-yl)thiazol-5-yl)ethan-1-aminium trifluoroacetate] gave a Ki on R232-STING of 33.4 nM. Besides, the EC50 on STING [1] amounted to 1500 nM; at STING [2], 1870 nM.

At R232-STING, `CCn1nc(C)cc1-c1nnc(-c2cc(C(N)=O)cc3c2cnn3CC[C@H](C)C2CCNCC2)[nH]1` (racemic) [YY18, 4-[5-(1-ethyl-3-methyl-1H-pyrazol-5-yl)-4H-1,2,4-triazol-3-yl]-1-[(3S)-3-(piperidin-4-yl)butyl]-1H-indazole-6-carboxamide] showed a Ki of 437 nM. Also, the EC50 on STING [1] and on STING [2] was more than 100000 nM each time.

With `CCn1nc(C)cc1-c1nc(-c2nc(C(N)=O)cc3c2cnn3C)c(C(C)N)s1` (single isomer, unassigned) [Example W02, 4-[5-(1-aminoethyl)-2-(1-ethyl-3-methyl-1H-pyrazol-5-yl)-1,3-thiazol-4-yl]-1-methyl-1H-pyrazolo[4,3-c]pyridine-6-carboxamide], the inhibition constant (Ki) at R232-STING worked out at 67.5 nM. Besides, the EC50 at STING [1] was found to be 2320 nM; on STING [2], 2460 nM.

On R232-STING, `CCn1nc(C)cc1-c1n[nH]c(-c2cc(C(N)=O)cc3c2cnn3C)n1` [Example A01, 4-[3-(1-ethyl-3-methyl-1H-pyrazol-5-yl)-1H-1,2,4-triazol-5-yl]-1-methyl-1H-indazole-6-carboxamide] registered a Ki of 25.1 nM. Also, the EC50 stood at 920 nM at STING [1] and 1020 nM at STING [2].

On R232-STING, `CCn1nc(C)cc1-c1n[nH]c(-c2cc(C(N)=O)cc3c2ccn3C)n1` [Example A02, 4-[3-(1-ethyl-3-methyl-1H-pyrazol-5-yl)-1H-1,2,4-triazol-5-yl]-1-methyl-1H-indole-6-carboxamide] came in with an inhibitory constant (Ki) of 29.4 nM. For the same compound, the EC50 amounted to 6680 nM on STING [1] and 7480 nM at STING [2].

On R232-STING, `CCn1nc(C)cc1-c1nc(-c2nc(C(N)=O)cc3c2cnn3C)c(CNC)s1` [Example AA01, 4-{2-(1-ethyl-3-methyl-1H-pyrazol-5-yl)-5-[(methylamino)methyl]-1,3-thiazol-4-yl}-1-methyl-1H-pyrazolo[4,3-c]pyridine-6-carboxamide] had a Ki of 134 nM. The EC50 amounted to 11800 nM at STING [1] and 13200 nM on STING [2].

For `CCn1nc(CO)cc1-c1nc(-c2nc(C(N)=O)cc3c2cnn3C)n(C)n1` [Example AB01, 4-{3-[1-ethyl-3-(hydroxymethyl)-1H-pyrazol-5-yl]-1-methyl-1H-1,2,4-triazol-5-yl}-1-methyl-1H-pyrazolo[4,3-c]pyridine-6-carboxamide], the affinity on R232-STING, expressed as Ki, was 23.6 nM. The results for the EC50 at STING [1] and on STING [2] were 3750 nM and 5010 nM, respectively.

For `Cc1cc(-c2nc(-c3nc(C(N)=O)cc4c3cnn4C)n(C)n2)n(CCCO)n1` [Example AD01, 4-{3-[1-(3-hydroxypropyl)-3-methyl-1H-pyrazol-5-yl]-1-methyl-1H-1,2,4-triazol-5-yl}-1-methyl-1H-pyrazolo[4,3-c]pyridine-6-carboxamide], the inhibition constant (Ki) on R232-STING is 2.2 nM. The EC50 on STING [1] and on STING [2] was 80 nM in each case.

As to `CCn1nc(C)c(O)c1-c1nc(-c2nc(C(N)=O)cc3c2cnn3C)co1` [Example AE01, 4-[2-(1-ethyl-4-hydroxy-3-methyl-1H-pyrazol-5-yl)-1,3-oxazol-4-yl]-1-methyl-1H-pyrazolo[4,3-c]pyridine-6-carboxamide], the affinity on R232-STING, expressed as Ki, was 2.6 nM. For the same compound, the EC50 was found to be 200 nM on STING [1] and 160 nM at STING [2].

The compound `Cc1cc(-c2nc(-c3nc(C(N)=O)cc4c3cnn4C)c(CN)s2)n(CCCO)n1` [Example AF01, 4-{5-(aminomethyl)-2-[1-(3-hydroxypropyl)-3-methyl-1H-pyrazol-5-yl]-1,3-thiazol-4-yl}-1-methyl-1H-pyrazolo[4,3-c]pyridine-6-carboxamide] displayed a Ki on R232-STING of 138 nM. In addition, the figures for the EC50 at STING [1] and on STING [2] were 5950 nM and 5220 nM, respectively.

On to `Cc1nn(CCCO)c(-c2nc(-c3nc(C(N)=O)cc4c3cnn4C)c(CN)s2)c1O` [Example AF02], for which, at R232-STING, the Ki is 11.5 nM. For the same compound, the half-maximal effective concentration (EC50) at STING [1] is 2260 nM; on STING [2] it was 1950 nM.

On R232-STING, `CCn1cc(C)c(O)c1-c1nc(-c2nc(C(N)=O)cc3c2cnn3C)cs1` [Example AG01, 4-[2-(1-ethyl-3-hydroxy-4-methyl-1H-pyrrol-2-yl)-1,3-thiazol-4-yl]-1-methyl-1H-pyrazolo[4,3-c]pyridine-6-carboxamide] came in with a Ki of 8.3 nM. For the same compound, the results for the concentration giving a half-maximal response (EC50) on STING [1] and on STING [2] were 240 nM and 340 nM, respectively.

For the compound `Cc1nn(CCCN)c(-c2n[nH]c(-c3nc(C(N)=O)cc4c3cnn4C)n2)c1O` [Example AH01, 4-{3-[1-(3-aminopropyl)-4-hydroxy-3-methyl-1H-pyrazol-5-yl]-1H-1,2,4-triazol-5-yl}-1-methyl-1H-pyrazolo[4,3-c]pyridine-6-carboxamide], affinity on R232-STING was put at a Ki of 184 nM. Further, the EC50 at STING [1] is more than 11100 nM; on STING [2] it was 6250 nM.

On R232-STING, `CCn1nc(C)cc1-c1n[nH]c(-c2cc(C(N)=O)cc3c2cnn3CC)n1` [Example B01, 1-ethyl-4-[3-(1-ethyl-3-methyl-1H-pyrazol-5-yl)-1H-1,2,4-triazol-5-yl]-1H-indazole-6-carboxamide] gave an inhibition constant (Ki) of 430 nM. Further, the EC50 at STING [1] was found to be 25100 nM; at STING [2], 23200 nM.

`CCn1cc2c(-c3nc(-c4cc(C)nn4CC)n[nH]3)cc(C(N)=O)cc2n1` [Example B02, 2-ethyl-4-[3-(1-ethyl-3-methyl-1H-pyrazol-5-yl)-1H-1,2,4-triazol-5-yl]-2H-indazole-6-carboxamide] registered a Ki at R232-STING of 46 nM. For the same compound, the EC50 turned out to be 8000 nM on STING [1] and 6330 nM at STING [2].

Regarding `CCn1nc(C)cc1-c1nc(-c2cc(C(N)=O)cc3c2cnn3C)nn1COP(=O)(O)O` [Example N01, [3-(6-carbamoyl-1-methyl-1H-indazol-4-yl)-5-(1-ethyl-3-methyl-1H-pyrazol-5-yl)-1H-1,2,4-triazol-1-yl]methyl dihydrogenphosphate], the EC50 at STING [1] was not below 100000 nM; on STING [2] it was 76900 nM.

With `CCn1nc(C)cc1-c1nc(-c2nc(C(N)=O)cc3c2cnn3C)n(CCNC)n1` [ZZZ126, 4-{3-(1-ethyl-3-methyl-1H-pyrazol-5-yl)-1-[2-(methylamino)ethyl]-1H-1,2,4-triazol-5-yl}-1-methyl-1H-pyrazolo[4,3-c]pyridine-6-carboxamide], the Ki on R232-STING was more than 990 nM.

`CCn1nc(C)c(F)c1-c1nnc(-c2cc(C(N)=O)cn3cncc23)[nH]1` [ZZZ128, 8-[5-(1-ethyl-4-fluoro-3-methyl-1H-pyrazol-5-yl)-4H-1,2,4-triazol-3-yl]imidazo[1,5-a]pyridine-6-carboxamide]: affinity at R232-STING was put at a Ki of 556 nM.

On R232-STING, `CCn1nc(C)c(F)c1-c1nc(-c2cc(C(N)=O)cc3c2cnn3C)n(C)n1` [ZZZ129, 4-[3-(1-ethyl-4-fluoro-3-methyl-1H-pyrazol-5-yl)-1-methyl-1H-1,2,4-triazol-5-yl]-1-methyl-1H-indazole-6-carboxamide] registered a Ki of 952 nM.

The compound `CCn1nc(C)c(F)c1-c1nc(-c2c(F)c(C(N)=O)cc3c2cnn3C)n(C)n1` [ZZZ130, 4-[3-(1-ethyl-4-fluoro-3-methyl-1H-pyrazol-5-yl)-1-methyl-1H-1,2,4-triazol-5-yl]-5-fluoro-1-methyl-1H-indazole-6-carboxamide] came in with a Ki at R232-STING of more than 990 nM.

Take `CCn1nc(C)cc1-c1nc(C(=O)O)c(-c2nc(C(N)=O)cc3c2cnn3C)o1` [ZZZ131, 5-(6-carbamoyl-1-methyl-1H-pyrazolo[4,3-c]pyridin-4-yl)-2-(1-ethyl-3-methyl-1H-pyrazol-5-yl)-1,3-oxazole-4-carboxylic acid]: the inhibition constant (Ki) on R232-STING is more than 990 nM.

For the compound `Cc1cc(-c2n[nH]c(-c3nc(C(N)=O)cc4c3cnn4C)n2)n(CCCN)n1` [ZZZ132, 4-{3-[1-(3-aminopropyl)-3-methyl-1H-pyrazol-5-yl]-1H-1,2,4-triazol-5-yl}-1-methyl-1H-pyrazolo[4,3-c]pyridine-6-carboxamide], the Ki on R232-STING was more than 990 nM.
